# Tests used:
# [1] = tested on: NCI-H226; experiment: Antiproliferative activity against human NCI-H226 cells assessed as cell growth inhibition at 10 uM incubated for 24 hrs by sulforhodamine B assay; assay type: functional; settings: read-out: GI
# [2] = tested on: UO-31; experiment: Antiproliferative activity against human UO-31 cells assessed as cell growth inhibition at 10 uM incubated for 24 hrs by sulforhodamine B assay; assay type: functional; settings: read-out: GI
# [3] = tested on: NCI-H23; experiment: Antiproliferative activity against human NCI-H23 cells assessed as cell growth inhibition at 10 uM incubated for 24 hrs by sulforhodamine B assay; assay type: functional; settings: read-out: GI
# [4] = tested on: T47D; experiment: Antiproliferative activity against human T47D cells assessed as reduction in cell viability incubated for 24 hrs by sulforhodamine B assay; assay type: functional, cell-based
# [5] = tested on: ACHN; experiment: Antiproliferative activity against human ACHN cells assessed as cell growth inhibition at 10 uM incubated for 24 hrs by sulforhodamine B assay; assay type: functional; settings: read-out: GI
# [6] = tested on: 786-0; experiment: Antiproliferative activity against human 786-0 cells assessed as cell growth inhibition at 10 uM incubated for 24 hrs by sulforhodamine B assay; assay type: functional; settings: read-out: GI
# [7] = tested on: HL-60; experiment: Antiproliferative activity against human HL-60 cells assessed as cell growth inhibition at 10 uM incubated for 24 hrs by sulforhodamine B assay; assay type: functional; settings: read-out: GI
# [8] = tested on: MDA-MB-231; experiment: Antiproliferative activity against human MDA-MB-231 cells assessed as cell growth inhibition at 10 uM incubated for 24 hrs by sulforhodamine B assay; assay type: functional; settings: read-out: GI
# [9] = tested on: CAKI-1; experiment: Antiproliferative activity against human CAKI-1 cells assessed as cell growth inhibition at 10 uM incubated for 24 hrs by sulforhodamine B assay; assay type: functional; settings: read-out: GI
# [10] = tested on: SK-OV-3; experiment: Antiproliferative activity against human SK-OV-3 cells assessed as cell growth inhibition at 10 uM incubated for 24 hrs by sulforhodamine B assay; assay type: functional; settings: read-out: GI
# [11] = tested on: MCF7; experiment: Antiproliferative activity against human MCF7 cells assessed as cell growth inhibition at 10 uM incubated for 24 hrs by sulforhodamine B assay; assay type: functional; settings: read-out: GI
# [12] = tested on: MDA-MB-468; experiment: Antiproliferative activity against human MDA-MB-468 cells assessed as cell growth inhibition at 10 uM incubated for 24 hrs by sulforhodamine B assay; assay type: functional; settings: read-out: GI
# [13] = tested on: NCI-H522; experiment: Antiproliferative activity against human NCI-H522 cells assessed as cell growth inhibition at 10 uM incubated for 24 hrs by sulforhodamine B assay; assay type: functional; settings: read-out: GI
# [14] = tested on: LOX IMVI; experiment: Antiproliferative activity against human LOX IMVI cells assessed as cell growth inhibition at 10 uM incubated for 24 hrs by sulforhodamine B assay; assay type: functional; settings: read-out: GI
# [15] = tested on: MDA-MB-231; experiment: Antiproliferative activity against human MDA-MB-231 cells assessed as reduction in cell viability incubated for 24 hrs by sulforhodamine B assay; assay type: functional, cell-based; settings: MDA-MB-231, 24 h
# [16] = tested on: UACC-62; experiment: Antiproliferative activity against human UACC-62 cells assessed as cell growth inhibition at 10 uM incubated for 24 hrs by sulforhodamine B assay; assay type: functional; settings: read-out: GI
# [17] = tested on: RXF 393; experiment: Antiproliferative activity against human RXF 393 cells assessed as cell growth inhibition at 10 uM incubated for 24 hrs by sulforhodamine B assay; assay type: functional; settings: read-out: GI
# [18] = molecular target: Carbonic anhydrase 9 (Homo sapiens, UniProt Q16790); experiment: Inhibition of human CA9 preincubated for 15 mins by phenol red dye based stopped flow CO2 hydration assay
# [19] = tested on: MCF7; experiment: Antiproliferative activity against human MCF7 cells assessed as reduction in cell viability incubated for 24 hrs by sulforhodamine B assay; assay type: functional, cell-based; settings: MCF7, 24 h
# [20] = tested on: SN12C; experiment: Antiproliferative activity against human SN12C cells assessed as cell growth inhibition at 10 uM incubated for 24 hrs by sulforhodamine B assay; assay type: functional; settings: read-out: GI
# [21] = tested on: HCT-15; experiment: Antiproliferative activity against human HCT-15 cells assessed as cell growth inhibition at 10 uM incubated for 24 hrs by sulforhodamine B assay; assay type: functional; settings: read-out: GI
# [22] = tested on: K562; experiment: Antiproliferative activity against human K562 cells assessed as cell growth inhibition at 10 uM incubated for 24 hrs by sulforhodamine B assay; assay type: functional; settings: read-out: GI
# [23] = tested on: EKVX; experiment: Antiproliferative activity against human EKVX cells assessed as cell growth inhibition at 10 uM incubated for 24 hrs by sulforhodamine B assay; assay type: functional; settings: read-out: GI
# [24] = molecular target: Carbonic anhydrase 2 (Homo sapiens, UniProt P00918); experiment: Inhibition of human CA2 preincubated for 15 mins by phenol red dye based stopped flow CO2 hydration assay
# [25] = tested on: MOLT-4; experiment: Antiproliferative activity against human MOLT-4 cells assessed as cell growth inhibition at 10 uM incubated for 24 hrs by sulforhodamine B assay; assay type: functional; settings: read-out: GI
# [26] = tested on: SK-MEL-5; experiment: Antiproliferative activity against human SK-MEL-5 cells assessed as cell growth inhibition at 10 uM incubated for 24 hrs by sulforhodamine B assay; assay type: functional; settings: read-out: GI
# [27] = tested on: OVCAR-4; experiment: Antiproliferative activity against human OVCAR-4 cells assessed as cell growth inhibition at 10 uM incubated for 24 hrs by sulforhodamine B assay; assay type: functional; settings: read-out: GI
# [28] = tested on: RPMI-8226; experiment: Antiproliferative activity against human RPMI-8226 cells assessed as cell growth inhibition at 10 uM incubated for 24 hrs by sulforhodamine B assay; assay type: functional; settings: read-out: GI
# [29] = tested on: SK-MEL-2; experiment: Antiproliferative activity against human SK-MEL-2 cells assessed as cell growth inhibition at 10 uM incubated for 24 hrs by sulforhodamine B assay; assay type: functional; settings: read-out: GI
# [30] = tested on: T47D; experiment: Antiproliferative activity against human T47D cells assessed as cell growth inhibition at 10 uM incubated for 24 hrs by sulforhodamine B assay; assay type: functional; settings: read-out: GI
# [31] = tested on: Malme-3M; experiment: Antiproliferative activity against human Malme-3M cells assessed as cell growth inhibition at 10 uM incubated for 24 hrs by sulforhodamine B assay; assay type: functional; settings: read-out: GI
# [32] = tested on: HCT-116; experiment: Antiproliferative activity against human HCT-116 cells assessed as cell growth inhibition at 10 uM incubated for 24 hrs by sulforhodamine B assay; assay type: functional; settings: read-out: GI
# [33] = tested on: PC-3; experiment: Antiproliferative activity against human PC-3 cells assessed as cell growth inhibition at 10 uM incubated for 24 hrs by sulforhodamine B assay; assay type: functional; settings: read-out: GI
# [34] = Antiproliferative activity against human […] cells assessed as cell growth inhibition at 10 uM incubated for 24 hrs by sulforhodamine B assay; assay type: functional; settings: read-out: GI
# [35] = tested on: CCRF-CEM; experiment: Antiproliferative activity against human CCRF-CEM cells assessed as cell growth inhibition at 10 uM incubated for 24 hrs by sulforhodamine B assay; assay type: functional; settings: read-out: GI
# [36] = tested on: M14; experiment: Antiproliferative activity against human M14 cells assessed as cell growth inhibition at 10 uM incubated for 24 hrs by sulforhodamine B assay; assay type: functional; settings: read-out: GI
# [37] = tested on: SR; experiment: Antiproliferative activity against human SR cells assessed as cell growth inhibition at 10 uM incubated for 24 hrs by sulforhodamine B assay; assay type: functional; settings: read-out: GI
# [38] = tested on: SF-539; experiment: Antiproliferative activity against human SF-539 cells assessed as cell growth inhibition at 10 uM incubated for 24 hrs by sulforhodamine B assay; assay type: functional; settings: read-out: GI
# [39] = tested on: OVCAR-5; experiment: Antiproliferative activity against human OVCAR-5 cells assessed as cell growth inhibition at 10 uM incubated for 24 hrs by sulforhodamine B assay; assay type: functional; settings: read-out: GI
# [40] = tested on: DU-145; experiment: Antiproliferative activity against human DU-145 cells assessed as cell growth inhibition at 10 uM incubated for 24 hrs by sulforhodamine B assay; assay type: functional; settings: read-out: GI
# [41] = tested on: KM12; experiment: Antiproliferative activity against human KM12 cells assessed as cell growth inhibition at 10 uM incubated for 24 hrs by sulforhodamine B assay; assay type: functional; settings: read-out: GI
# [42] = tested on: COLO 205; experiment: Antiproliferative activity against human COLO 205 cells assessed as cell growth inhibition at 10 uM incubated for 24 hrs by sulforhodamine B assay; assay type: functional; settings: read-out: GI
# [43] = tested on: HT-29; experiment: Antiproliferative activity against human HT-29 cells assessed as cell growth inhibition at 10 uM incubated for 24 hrs by sulforhodamine B assay; assay type: functional; settings: read-out: GI
# [44] = tested on: A549; experiment: Antiproliferative activity against human A549 cells assessed as cell growth inhibition at 10 uM incubated for 24 hrs by sulforhodamine B assay; assay type: functional; settings: read-out: GI
Structure (SMILES),inhibition of growth at 10 µM [1] [%],inhibition of growth at 10 µM [2] [%],inhibition of growth at 10 µM [3] [%],inhibition of growth at 10 µM [5] [%],inhibition of growth at 10 µM [7] [%],inhibition of growth at 10 µM [8] [%],inhibition of growth at 10 µM [9] [%],inhibition of growth at 10 µM [11] [%],inhibition of growth at 10 µM [12] [%],inhibition of growth at 10 µM [13] [%],inhibition of growth at 10 µM [14] [%],inhibition of growth at 10 µM [16] [%],inhibition of growth at 10 µM [17] [%],Ki [18] [µM],inhibition of growth at 10 µM [20] [%],inhibition of growth at 10 µM [21] [%],inhibition of growth at 10 µM [22] [%],Ki [24] [µM],inhibition of growth at 10 µM [25] [%],inhibition of growth at 10 µM [26] [%],other results
CC(C)c1nc(SCC(=O)c2ccccc2)nc(Nc2ccc(S(N)(=O)=O)cc2)c1C#N,11.8,36.3,13.1,7.34,5.93,5.5,8.76,11.4,9.86,10.1,16.5,10.2,13.8,0.0966,–,–,–,–,–,–,IC50 [4]: 46.4 µM; inhibition of growth at 10 µM [6]: 5.2%; inhibition of growth at 10 µM [10]: 5.58%; IC50 [15]: 21 µM; IC50 [19]: 47.6 µM
CC(C)c1nc(SCC(=O)c2ccc(Br)cc2)nc(Nc2ccc(S(N)(=O)=O)cc2)c1C#N,21.1,31.2,20.2,6.53,24.1,9.41,12.2,6.24,15.3,10.7,–,24.3,22.2,0.38,5.41,7.17,9.23,> 20,13.7,5.21,inhibition of growth at 10 µM [23]: 10.7%; inhibition of growth at 10 µM [27]: 6.52%; inhibition of growth at 10 µM [28]: 12.3%; inhibition of growth at 10 µM [29]: 9.02%; inhibition of growth at 10 µM [30]: 33%; inhibition of growth at 10 µM [31]: 11.7%; inhibition of growth at 10 µM [32]: 6.95%; inhibition of growth at 10 µM [33]: 12.5%
NS(=O)(=O)c1ccc(Nc2cc(-c3ccccc3)nc(SCC(=O)c3ccc(Br)cc3)n2)cc1,–,19.4,–,9.12,–,–,19.4,26.9,–,–,12.7,–,–,0.322,13.3,28.4,22.8,> 20,15.8,5.28,inhibition of growth at 10 µM [34]: 14.2%; inhibition of growth at 10 µM [35]: 8.13%; inhibition of growth at 10 µM [36]: 7.75%; inhibition of growth at 10 µM [27]: 7.69%; inhibition of growth at 10 µM [37]: 15.7%; inhibition of growth at 10 µM [38]: 5.75%; inhibition of growth at 10 µM [30]: 10.3%; inhibition of growth at 10 µM [39]: 5.54%; inhibition of growth at 10 µM [40]: 5.84%; inhibition of growth at 10 µM [41]: 11.9%; inhibition of growth at 10 µM [42]: 9.34%; inhibition of growth at 10 µM [43]: 21.8%; inhibition of growth at 10 µM [32]: 8.87%; inhibition of growth at 10 µM [44]: 6.27%; inhibition of growth at 10 µM [33]: 8.3%

# — ChEMBL document CHEMBL5038625, “Application of the dual-tail approach for the design and synthesis of novel Thiopyrimidine-Benzenesulfonamide hybrids as selective carbonic anhydrase inhibitors” (Eur J Med Chem, 2022)
